Tests used:
mouse liver mitochondria [1] = conditions: pyruvate as substrate, in words; Dröse et al. cited; cited from earlier work
whole drosophilae larvae = experiment: Metabolic flux analysis (amperometry) of whole Drosophila larvae; type: in vivo
Text: Materials. Sodium phosphate monobasic (Sigma), sodium phosphate dibasic (Sigma), sodium chloride (Sigma), sodium pyruvate (Sigma), citric acid (Sigma), rotenone (Sigma), adenosine diphosphate (Sigma), sucrose (Sigma), Tris-EDTA (Sigma), Protease inhibitor cocktail (Sigma), deionized water (in house), and dimethylsulfoxide (Sigma) were used as received. All wild-type Drosophila larvae were hatched and grown on standard cornmeal-agar-molasses-yeast food at room temperature. Individual larvae were selected used for metabolic flux analysis. Mitochondria were isolated from normal mice liver. All steps were carried out at 4° C. Tissues were kept on ice. The liver tissue was homogenized in 3 volumes of Buffer A (0.33 M sucrose, 1.33 m M Tris-EDTA, pH 7.4 buffer containing protease inhibitors) using potter Dounce homogenizer. Once homogenized two more volumes of Buffer A were added and mixed before centrifugation at 1000 Xg for 10-15 mins. The supernatant was then recovered and centrifuged 2 times more to remove impurities. Finally, the supernatant was recovered and centrifuged at 15,000 Xg for 20 mins. The mitochondrial pellet recovered from the bottom of the centrifuge tube and suspended at a protein concentration of 35 mg/ml in phosphate buffered saline at pH 7.5. […]
Metabolic flux analysis. […] When the experiment was ready to begin the sample was added to the electrode. […]

mouse liver mitochondria [2] = experiment: Metabolic flux analysis (amperometry) of mouse liver mitochondria suspension; type: biochemical; conditions: for attenuation of electron flux / inhibitory response (electron flux): in words; for Electron flux generated: rotenone present (1 μl of 1 mg/ml in DMSO), 120 seconds of measurement, 600 mV; for inhibitory response (electron flux): substrate not stated
Text: Materials. Sodium phosphate monobasic (Sigma), sodium phosphate dibasic (Sigma), sodium chloride (Sigma), sodium pyruvate (Sigma), citric acid (Sigma), rotenone (Sigma), adenosine diphosphate (Sigma), sucrose (Sigma), Tris-EDTA (Sigma), Protease inhibitor cocktail (Sigma), deionized water (in house), and dimethylsulfoxide (Sigma) were used as received. All wild-type Drosophila larvae were hatched and grown on standard cornmeal-agar-molasses-yeast food at room temperature. Individual larvae were selected used for metabolic flux analysis. Mitochondria were isolated from normal mice liver. All steps were carried out at 4° C. Tissues were kept on ice. The liver tissue was homogenized in 3 volumes of Buffer A (0.33 M sucrose, 1.33 m M Tris-EDTA, pH 7.4 buffer containing protease inhibitors) using potter Dounce homogenizer. Once homogenized two more volumes of Buffer A were added and mixed before centrifugation at 1000 Xg for 10-15 mins. The supernatant was then recovered and centrifuged 2 times more to remove impurities. Finally, the supernatant was recovered and centrifuged at 15,000 Xg for 20 mins. The mitochondrial pellet recovered from the bottom of the centrifuge tube and suspended at a protein concentration of 35 mg/ml in phosphate buffered saline at pH 7.5. Once the extraction was complete the mitochondria was stored at −80° C. in small aliquots for further use.
Metabolic flux analysis. The electrochemical test setup consisted of a USTAT 200 Bipotentiostat coupled to a Dropsens SPE 110 screen printed electrode chip that included a carbon working electrode, a carbon counter electrode, and a silver reference electrode. The working substrate solution consisted of pH 7.40 10 mM phosphate buffer, 137 mM sodium chloride, 10 mM metabolic substrate, and 1 mg/ml adenosine diphosphate. The inhibitor solution consisted of 1 mg/ml rotenone in dimethyl sulfoxide. For uninhibited experiments pure dimethyl sulfoxide was used to maintain consistency. To the electrode 35 μl of substrate solution was dropped on top of the 3 electrode working area of the chip ensuring that all of the electrode surfaces were thoroughly wetted. To this drop, 1 μl of dimethyl sulfoxide was added that may or may not contain inhibitor. When the experiment was ready to begin the sample was added to the electrode. For mitochondrial suspension, 15 μL of the suspension was added to the working area of the chip. For the larvae, one larvae was placed into the drop of solution on to the working electrode. Amperometry was then performed with an applied potential of 600 mV with respect to the reference electrode for 120 seconds.

| Molecule | inhibition of electron flux (mouse liver mitochondria [1]) | Electron flux generated (whole drosophilae larvae; glucose as substrate, rotenone present (1 μl of 1 mg/ml in DMSO), 120 seconds of measurement, 600 mV) | attenuation of metabolic flux (whole drosophilae larvae; glucose solution, in words) | attenuation of electron flux (mouse liver mitochondria [2]; citrate as metabolic substrate) | Electron flux generated (mouse liver mitochondria [2]; citrate as substrate) | attenuation of electron flux (mouse liver mitochondria [2]; pyruvate as metabolic substrate) | Electron flux generated (mouse liver mitochondria [2]; pyruvate as substrate) | inhibitory response (electron flux) (mouse liver mitochondria [2]) |
| --- | --- | --- | --- | --- | --- | --- | --- | --- |
| CC1=NS(=O)(=O)c2cc(Cl)ccc2N1 [diazoxide] | partial inhibition |  |  |  |  |  |  |  |
| C=C(C)[C@H]1Cc2c(ccc3c2O[C@@H]2COc4cc(OC)c(OC)cc4[C@@H]2C3=O)O1 [rotenone] |  | 3.302×10^−4 micromoles of electrons | diminished | did not exhibit significant inhibition | 1.536×10^−4 micromoles of electrons | diminished | 1.435×10^−4 micromoles of electrons | strong inhibitory responses |
| antimycin |  |  |  |  |  |  |  | strong inhibitory responses |

— patent publication US20180321220A1, “UNIVERSAL BIOELECTROCHEMICAL METABOLIC FLUX MEASUREMENT SYSTEM AND METHODS OF MAKING AND USING THE SAME” (Saint Louis University, priority 2015, published 2018)
